According to ChEMBL document CHEMBL1127285, “N-alkyl quinuclidinium substance P antagonists” (Bioorg Med Chem Lett, 1994):

Target: Substance-P receptor (Homo sapiens, UniProt P25103)
Test: Compound was tested in vitro for its Tachykinin receptor 1 affinity by the displacement of [125I]Bolton-Hunter substance p from human IM-9 cells
Format: cell-based

Sequence of Substance-P receptor (P25103 whole entry): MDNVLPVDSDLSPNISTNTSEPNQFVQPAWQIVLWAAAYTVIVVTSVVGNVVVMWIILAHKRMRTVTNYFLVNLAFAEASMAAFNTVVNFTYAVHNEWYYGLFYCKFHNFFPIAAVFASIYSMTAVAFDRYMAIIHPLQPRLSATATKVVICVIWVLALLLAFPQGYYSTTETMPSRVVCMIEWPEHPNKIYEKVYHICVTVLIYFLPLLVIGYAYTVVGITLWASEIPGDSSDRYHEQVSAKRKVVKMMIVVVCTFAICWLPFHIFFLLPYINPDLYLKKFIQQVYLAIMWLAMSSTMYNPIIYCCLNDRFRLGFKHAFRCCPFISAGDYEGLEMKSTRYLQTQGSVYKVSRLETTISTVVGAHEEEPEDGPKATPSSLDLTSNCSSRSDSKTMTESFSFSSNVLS

| SMILES | IC50 [nM] |
| --- | --- |
| CCOC(=O)C[N+]12CCC(CC1)[C@H](NCc1ccccc1OC)[C@@H]2C(c1ccccc1)c1ccccc1 | 32.7 |
| COc1ccccc1CN[C@H]1C2CC[N+](Cc3ccccc3)(CC2)[C@H]1C(c1ccccc1)c1ccccc1 | 332 |
| C=CC[N+]12CCC(CC1)[C@H](NCc1ccccc1OC)[C@@H]2C(c1ccccc1)c1ccccc1 | 22.3 |
| COc1ccccc1CN[C@H]1C2CC[N+](CC(N)=O)(CC2)[C@H]1C(c1ccccc1)c1ccccc1 | 1.3 |
| COc1ccccc1CN[C@H]1C2CC[N+](C)(CC2)[C@H]1C(c1ccccc1)c1ccccc1 | 12.2 |
